The target in assay [1] is T1, aggregated TTR (Homo sapiens, UniProt P02766). Put plainly: Fluorescence spectra of Compound 1 with TTR aggregates. To be noted: excitation 440 nm; for Fluorescence fold increase: Compound 1 4 μM, emission 565 nm, RFI over Compound 1 alone. The protocol:
Several aggregated TTR samples were prepared using different conditions as described below. • Aggregate A was prepared by resuspending TTR in 50 mM glycine buffer at a pH of about 3.6 and further incubating the same for 24 hours at room temperature. • Aggregate B1 was prepared by resuspending TTR in water at a pH of about 7.4, and further incubating the same for 7 days with stirring (200 rpm) maintained at 37° C. • Aggregate B2 was prepared by resuspending TTR in water at a pH of about 7.4, and further incubating the same for 14 days with stirring (200 rpm) maintained at 37° C.
Compound 1 (4 μM) was prepared with or without Aggregate B1 in 1× phosphate-buffered saline (PBS). The absorption, fluorescence, and excitation spectra were taken for both samples. The excitation wavelength was optimized to be 440 nm. The emission spectra thus received were adjusted against a blank solvent control to obtain relative fluorescence intensity (RFI) as a function of wavelengths.
Further, fluorescence spectra were taken on mixtures of Compound I (4 μM) with Aggregate A, B1, or B2, respectively, each at the concentration of 5 μM, at the emission wavelength of 565 nm, when excited at 440 nm. The increases in RFI over Compound 1 alone were calculated and are illustrated in Table 1: […]

For assay [2], the target named is T1, aggregated TTR. Put plainly: Binding affinity for Compound 1 with aggregated TTR (fluorescence titration, one site specific binding). Particulars: 5 μM TTR, 4% DMSO/PBS pH 7.4; Compound 1 0 to 10 μM; RFI at λmax(em); FIG. 2. The protocol: A solution of DMSO/PBS (6 μL DMSO in 144 μL PBS, pH 7.4) was prepared as a blank control. Further, a 250 μM solution of Compound 1 in DMSO was prepared. The following samples were then prepared in triplicate while keeping a constant 5 μM TTR concentration in 4% DMSO/PBS:
Emission spectra were taken for each sample and adjusted against the blank over the range of 445-700 nm. RFI at λmax(em) was determined for each sample. RFI was then plotted against the increasing concentration of Compound 1 over the range of 0 to 10 μM using a one site specific binding algorithm. The binding affinity (Kd) was determined to be 0.3+/−0.1 μM. This is illustrated in FIG. 2.

The subject of assay [3] is TTR deposits in human tissues. Put plainly: Staining of FFPE human tissue sections with vitreous amyloid, co-stained with TTR antibody. To be noted: compound 60 μM, 30 minutes; adjacent sections stained with Congo red and H&E; present-tense example, binding 'contemplated'. How it is done: The following protocol was adopted for staining Formalin-Fixed Paraffin Embedded (FFPE) tissues: • 1. Deparaffinization and hydration of tissue sections: • Pre-heat @ 60° C. 1 hour • Place slides in holders and treat with the clearing agent xylene (paraffin solvent) and a series of graded ethanol (EtOH) as follows: • i. 100% xylene—5 min • ii. 100% xylene—5 min • iii. 50%/50% xylene/100% EtOH—3 min • iv. 100% EtOH—3 min • v. 95% EtOH—3 min • vi. 70% EtOH—3 min • vii. 50% EtOH—3 min • viii. Water—2×3 min. • 2. Antigen retrieval: incubate in 99% formic acid for 5 minutes. • 3. Wash with distilled water for 5 minutes. Repeat this step two times. • 4. Pre-heat 10 mM citrate buffer pH 6.0 to boiling. • 5. Place slides in staining chamber with heated citrate buffer for 20 minutes. • 6. Cool in water bath. Wash with distilled water for 5 minutes. Repeat this step two times. • 7. […]
Sections from tissues of vitreous amyloid with known TTR mutation (paraffin embedded tissue blocks) and an autopsy eyeball with vitreous amyloid (paraffin embedded organ) are respectively stained with hematoxylin and eosin (H&E) and Congo red to mark regions with amyloidosis. […] It is contemplated that Compound 1 binds to TTR deposits in human tissues and undergoes an increase in fluorescence emission in a manner similar to its increase in fluorescence in vitro in the presence of aggregated TTR as described in earlier examples.

On to `COCCOCCOCCOC(=O)/C(C#N)=C/c1ccc2cc(N3CCCCC3)ccc2c1` [Compound 1], for which the results for the Fluorescence fold increase on aggregated TTR [1] (Aggregate A 5 μM), at aggregated TTR [1] (Aggregate B1 5 μM) and on aggregated TTR [1] (Aggregate B2 5 μM) were 4.6 fold, 2.3 fold and 2.5 fold, respectively. Moreover, at aggregated TTR [1] (Compound 1 4 μM with vs without Aggregate B1 in 1× PBS, FIG. 1), the “increase of relative fluorescence intensity (RFI) in presence of aggregate” value is recorded as “about 3.2”. In addition, the dissociation constant (Kd) – broadly, the constant that tells how readily two partners part at equilibrium – at aggregated TTR [2] was 0.3 µM. Also, in assay [3], the “regions of hyperfluorescence versus areas of amyloidosis” value is “correspond to areas of amyloidosis defined using Congo Red and H&E stains”.

These data come from patent US20240165274A1, “METHODS OF DETECTING SYSTEMIC AMYLOIDOSIS VIA BINDING TO MISFOLDED OR AGGREGATED PROTEIN” (Amydis, Inc., priority 2021, published 2024).
